# From ChEMBL document CHEMBL3988442, “University of Dundee, Small-Polar-MMV Screening Library” (2021)
# Where “and” joins values, the source holds several entries; their conditions need not be identical. Identical values can stand only once.
# How the values were obtained:
# [1] = To identify inhibition of the IFN signalling (Jak-Stat) pathway via expression of an eGFP reporter gene under the control of an IFN-stimulated response element (ISRE) containing MxA promoter.; type: functional, Homo sapiens
# Shiga toxin 2 = target: T1, Shiga toxin 2 (Escherichia coli O157:H7, UniProt P09385+P09386); assay: E. coli 0.157:H7 Shiga Toxin SOP - stx2 screening assay; type: functional
# T1 sequence (P09385 whole entry): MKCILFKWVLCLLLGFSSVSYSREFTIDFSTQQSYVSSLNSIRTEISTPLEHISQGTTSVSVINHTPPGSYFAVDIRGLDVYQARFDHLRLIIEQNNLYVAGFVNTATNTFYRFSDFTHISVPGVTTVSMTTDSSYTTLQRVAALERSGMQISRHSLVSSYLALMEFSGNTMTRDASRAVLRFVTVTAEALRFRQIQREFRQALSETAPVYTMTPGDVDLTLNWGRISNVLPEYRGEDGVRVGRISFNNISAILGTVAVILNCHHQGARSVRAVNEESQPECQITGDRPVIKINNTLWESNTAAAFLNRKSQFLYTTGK
# T1 sequence (P09386 whole entry): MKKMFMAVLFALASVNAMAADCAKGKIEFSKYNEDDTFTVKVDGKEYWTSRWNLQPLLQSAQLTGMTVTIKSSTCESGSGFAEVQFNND
# Histidine--tRNA ligase [2] = target: T2, Histidine--tRNA ligase (Leishmania infantum, UniProt A4I591); assay: Leishmania infantum Histidine tRNA synthetase (LdHisRS); type: functional
# T2 sequence (A4I591 whole entry): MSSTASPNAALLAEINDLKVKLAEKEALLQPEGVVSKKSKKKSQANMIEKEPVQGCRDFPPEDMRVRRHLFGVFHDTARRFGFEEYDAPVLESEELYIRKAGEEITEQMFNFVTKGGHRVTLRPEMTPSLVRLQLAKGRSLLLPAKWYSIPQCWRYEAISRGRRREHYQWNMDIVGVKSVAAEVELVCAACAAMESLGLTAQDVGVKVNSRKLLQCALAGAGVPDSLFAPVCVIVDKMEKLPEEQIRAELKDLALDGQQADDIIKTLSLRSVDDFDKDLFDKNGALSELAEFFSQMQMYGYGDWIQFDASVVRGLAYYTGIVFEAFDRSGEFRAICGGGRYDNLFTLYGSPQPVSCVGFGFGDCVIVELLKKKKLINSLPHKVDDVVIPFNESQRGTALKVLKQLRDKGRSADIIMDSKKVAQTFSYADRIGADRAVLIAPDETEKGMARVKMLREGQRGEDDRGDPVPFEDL
# [3] = target: T3, Tyrosyl-tRNA synthetase, putative (Trypanosoma cruzi (strain CL Brener), UniProt Q4DSP6); assay: Trypanosoma cruzi tyrosyl tRNA synthetase (TcYRS) _High Tyrosine SOP; type: functional
# T3 sequence (Q4DSP6 whole entry): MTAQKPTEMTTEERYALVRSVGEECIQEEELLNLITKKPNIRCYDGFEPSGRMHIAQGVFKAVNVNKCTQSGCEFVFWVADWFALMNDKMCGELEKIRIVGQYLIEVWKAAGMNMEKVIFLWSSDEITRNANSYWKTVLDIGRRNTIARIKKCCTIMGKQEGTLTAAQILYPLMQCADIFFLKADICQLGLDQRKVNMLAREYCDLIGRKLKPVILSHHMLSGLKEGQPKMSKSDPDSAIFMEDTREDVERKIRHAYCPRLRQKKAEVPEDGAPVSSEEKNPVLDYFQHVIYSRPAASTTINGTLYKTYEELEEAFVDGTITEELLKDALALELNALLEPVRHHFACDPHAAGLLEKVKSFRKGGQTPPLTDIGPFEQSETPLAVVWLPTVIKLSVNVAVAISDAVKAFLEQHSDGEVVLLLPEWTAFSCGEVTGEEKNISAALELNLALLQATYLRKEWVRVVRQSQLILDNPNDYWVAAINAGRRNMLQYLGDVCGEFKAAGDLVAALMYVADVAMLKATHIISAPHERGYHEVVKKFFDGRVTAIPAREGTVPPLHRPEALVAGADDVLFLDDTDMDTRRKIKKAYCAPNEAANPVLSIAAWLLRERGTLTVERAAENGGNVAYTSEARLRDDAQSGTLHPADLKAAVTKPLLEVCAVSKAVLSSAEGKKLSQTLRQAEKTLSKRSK
# [4] = target: T3, Tyrosyl-tRNA synthetase, putative; assay: Trypanosoma cruzi tyrosyl tRNA synthetase (TcYRS) SOP; type: functional
# [5] = microbe, parasite or virus in culture; details: Mycobacterium tuberculosis, 96 h, read-out: pIC50 (converted)
# [6] = microbe, parasite or virus in culture; details: Mycobacterium tuberculosis, 72 h, read-out: pIC50 (converted)
# [7] = In vitro enzyme assay to detect hydrolysis of chlorophenol red-beta-D-[…] directly proportional to the number of Toxoplasma stably expressing beta-galactosidase; type: functional, organism-based, Toxoplasma gondii; details: Toxoplasma gondii
# Proteasome subunit beta = target: T4, Proteasome subunit beta (Trypanosoma cruzi, UniProt O96673); assay: Trypanosoma cruzi proteasome chymotrypsin-like activity (TcProtChymo) assay.; type: functional
# T4 sequence (O96673 whole entry): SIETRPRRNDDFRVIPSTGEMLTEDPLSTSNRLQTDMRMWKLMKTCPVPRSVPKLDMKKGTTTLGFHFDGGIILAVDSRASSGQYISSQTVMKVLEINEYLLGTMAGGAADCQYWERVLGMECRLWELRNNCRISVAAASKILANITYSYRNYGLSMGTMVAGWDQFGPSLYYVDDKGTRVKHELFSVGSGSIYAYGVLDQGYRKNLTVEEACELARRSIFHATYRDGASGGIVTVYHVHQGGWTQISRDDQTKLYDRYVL
# [8] = Trypanosoma cruzi proteasome luciferase counter-screen; type: functional, N/A
# [9] = target: Protein translocase subunit SecA (Escherichia coli (strain K12), UniProt P10408); assay: Assay to Identify E. coli SecA ATPase Inhibitors; type: functional
# [10] = target: Polyketide synthase Pks13 (Mycobacterium tuberculosis (strain ATCC 25618 / H37Rv), UniProt I6X8D2); assay: Mycobacterium tuberculosis Polyketide synthase 13 Thioesterase (PKS13); type: functional
# [11] = target: Chromo domain-containing protein 1 (Saccharomyces cerevisiae (strain ATCC 204508 / S288c) (Baker's yeast), UniProt P32657); assay: ScCHD-1 Enzyme Inhibition Assay; type: functional
# Leishmania donovani = assay: Leishmania intramacrophage assay; type: functional, organism-based; details: Leishmania donovani
# Lysine--tRNA ligase = Lysine--tRNA ligase (Plasmodium falciparum (isolate 3D7), UniProt Q8IDJ8); assay: Pf-KRS-1 (Lysyl-RNA Synthetase-1, KRS-1, cytosolic KRS) from Plasmodium falciparum. Inhibitor assay, 384 well plate, luminescence read.; type: functional
# Histidine--tRNA ligase [12] = target: T5, Histidine--tRNA ligase (Trypanosoma cruzi (strain CL Brener), UniProt Q4DA54); assay: Trypanosoma cruzi histidyl tRNA synthetase (Tc-HisRS); type: functional
# T5 sequence (Q4DA54 whole entry): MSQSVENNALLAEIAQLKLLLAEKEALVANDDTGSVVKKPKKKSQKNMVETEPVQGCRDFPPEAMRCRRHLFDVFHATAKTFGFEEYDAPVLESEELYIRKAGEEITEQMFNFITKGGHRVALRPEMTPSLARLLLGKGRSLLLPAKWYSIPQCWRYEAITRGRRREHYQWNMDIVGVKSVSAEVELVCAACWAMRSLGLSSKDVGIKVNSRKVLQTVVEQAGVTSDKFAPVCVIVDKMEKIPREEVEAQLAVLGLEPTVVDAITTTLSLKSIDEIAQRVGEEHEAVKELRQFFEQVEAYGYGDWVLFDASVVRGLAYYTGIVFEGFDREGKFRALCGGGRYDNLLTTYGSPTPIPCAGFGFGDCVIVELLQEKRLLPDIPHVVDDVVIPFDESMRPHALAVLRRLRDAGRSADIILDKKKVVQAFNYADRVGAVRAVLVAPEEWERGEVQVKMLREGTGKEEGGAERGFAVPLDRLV
# Plasmodium falciparum = assay: Calibr Malaria Delayed Death Assay SOP; type: functional, organism-based
# Sequence of Chromo domain-containing protein 1 (P32657 whole entry, the tested form may be a part): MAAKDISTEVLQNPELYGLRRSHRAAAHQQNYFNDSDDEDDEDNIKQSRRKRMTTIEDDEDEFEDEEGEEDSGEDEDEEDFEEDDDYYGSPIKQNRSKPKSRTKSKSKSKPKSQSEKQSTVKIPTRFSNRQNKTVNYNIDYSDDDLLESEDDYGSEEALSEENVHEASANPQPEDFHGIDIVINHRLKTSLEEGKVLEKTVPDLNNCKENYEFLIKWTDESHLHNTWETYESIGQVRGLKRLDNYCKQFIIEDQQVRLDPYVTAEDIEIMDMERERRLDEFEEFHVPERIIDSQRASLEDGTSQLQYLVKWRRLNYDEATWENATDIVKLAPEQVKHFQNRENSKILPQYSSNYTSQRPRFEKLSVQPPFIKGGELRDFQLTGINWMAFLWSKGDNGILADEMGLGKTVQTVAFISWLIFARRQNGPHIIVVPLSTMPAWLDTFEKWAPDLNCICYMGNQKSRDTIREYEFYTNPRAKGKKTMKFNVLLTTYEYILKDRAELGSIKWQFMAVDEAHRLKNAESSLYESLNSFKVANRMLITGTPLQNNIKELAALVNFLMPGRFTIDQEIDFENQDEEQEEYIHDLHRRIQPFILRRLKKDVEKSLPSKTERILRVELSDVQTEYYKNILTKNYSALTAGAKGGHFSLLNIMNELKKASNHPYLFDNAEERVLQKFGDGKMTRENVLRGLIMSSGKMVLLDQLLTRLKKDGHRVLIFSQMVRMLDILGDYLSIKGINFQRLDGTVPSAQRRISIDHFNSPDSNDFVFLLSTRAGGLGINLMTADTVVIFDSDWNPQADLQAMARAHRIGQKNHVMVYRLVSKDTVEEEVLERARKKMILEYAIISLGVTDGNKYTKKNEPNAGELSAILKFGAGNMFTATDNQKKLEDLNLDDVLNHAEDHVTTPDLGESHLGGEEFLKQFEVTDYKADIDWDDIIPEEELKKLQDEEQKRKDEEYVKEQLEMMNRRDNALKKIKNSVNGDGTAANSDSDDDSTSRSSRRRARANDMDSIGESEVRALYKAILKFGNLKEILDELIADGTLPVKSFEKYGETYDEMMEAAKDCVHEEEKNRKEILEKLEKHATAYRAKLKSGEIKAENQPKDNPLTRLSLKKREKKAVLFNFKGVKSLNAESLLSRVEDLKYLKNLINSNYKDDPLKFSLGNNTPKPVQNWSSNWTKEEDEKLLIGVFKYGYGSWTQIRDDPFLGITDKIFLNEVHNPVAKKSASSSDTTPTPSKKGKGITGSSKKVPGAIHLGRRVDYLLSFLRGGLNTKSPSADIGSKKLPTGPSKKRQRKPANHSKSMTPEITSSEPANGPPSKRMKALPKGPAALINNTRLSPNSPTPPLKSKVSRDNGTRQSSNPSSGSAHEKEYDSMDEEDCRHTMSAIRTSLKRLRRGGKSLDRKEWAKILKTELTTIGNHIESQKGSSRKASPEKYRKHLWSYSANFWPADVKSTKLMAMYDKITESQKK
# Sequence of Lysine--tRNA ligase (Q8IDJ8 whole entry): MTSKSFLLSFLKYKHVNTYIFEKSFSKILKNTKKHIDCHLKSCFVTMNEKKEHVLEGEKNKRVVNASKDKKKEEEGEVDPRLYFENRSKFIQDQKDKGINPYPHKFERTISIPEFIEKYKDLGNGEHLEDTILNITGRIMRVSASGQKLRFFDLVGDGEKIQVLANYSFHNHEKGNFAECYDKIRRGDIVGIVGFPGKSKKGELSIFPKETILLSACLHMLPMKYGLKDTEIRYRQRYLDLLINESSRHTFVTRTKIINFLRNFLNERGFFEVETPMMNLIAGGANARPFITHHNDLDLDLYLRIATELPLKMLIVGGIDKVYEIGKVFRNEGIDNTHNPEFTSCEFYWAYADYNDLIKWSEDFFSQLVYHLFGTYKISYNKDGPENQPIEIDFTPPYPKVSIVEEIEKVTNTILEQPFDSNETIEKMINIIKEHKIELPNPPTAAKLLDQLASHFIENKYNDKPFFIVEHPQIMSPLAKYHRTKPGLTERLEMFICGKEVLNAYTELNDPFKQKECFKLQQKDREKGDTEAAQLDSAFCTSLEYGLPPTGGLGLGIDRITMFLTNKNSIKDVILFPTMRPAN
# Sequence of Protein translocase subunit SecA (P10408 whole entry): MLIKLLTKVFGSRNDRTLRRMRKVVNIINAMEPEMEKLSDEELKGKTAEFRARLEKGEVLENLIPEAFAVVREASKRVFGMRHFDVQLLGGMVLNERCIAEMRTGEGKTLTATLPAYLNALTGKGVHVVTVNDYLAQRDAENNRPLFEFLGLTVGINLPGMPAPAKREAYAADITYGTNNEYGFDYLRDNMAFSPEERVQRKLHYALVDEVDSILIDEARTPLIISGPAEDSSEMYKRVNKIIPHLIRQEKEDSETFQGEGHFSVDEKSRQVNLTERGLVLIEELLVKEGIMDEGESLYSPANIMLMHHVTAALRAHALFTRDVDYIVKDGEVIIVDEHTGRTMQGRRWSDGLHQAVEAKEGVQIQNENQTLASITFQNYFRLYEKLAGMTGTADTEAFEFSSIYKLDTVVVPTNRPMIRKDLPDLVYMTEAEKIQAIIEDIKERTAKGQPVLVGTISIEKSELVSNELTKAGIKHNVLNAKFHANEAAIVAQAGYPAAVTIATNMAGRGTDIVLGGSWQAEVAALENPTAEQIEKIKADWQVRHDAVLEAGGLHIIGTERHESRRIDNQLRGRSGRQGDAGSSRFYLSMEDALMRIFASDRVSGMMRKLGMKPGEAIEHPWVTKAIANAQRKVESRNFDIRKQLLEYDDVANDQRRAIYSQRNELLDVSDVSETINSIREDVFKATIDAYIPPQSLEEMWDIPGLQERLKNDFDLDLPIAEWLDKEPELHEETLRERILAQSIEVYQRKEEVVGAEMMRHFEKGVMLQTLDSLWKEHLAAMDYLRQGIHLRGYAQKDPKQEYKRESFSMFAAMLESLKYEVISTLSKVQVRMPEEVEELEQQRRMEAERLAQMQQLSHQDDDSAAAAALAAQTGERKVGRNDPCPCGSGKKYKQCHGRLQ
# Sequence of Polyketide synthase Pks13 (I6X8D2 whole entry, the tested form may be a part): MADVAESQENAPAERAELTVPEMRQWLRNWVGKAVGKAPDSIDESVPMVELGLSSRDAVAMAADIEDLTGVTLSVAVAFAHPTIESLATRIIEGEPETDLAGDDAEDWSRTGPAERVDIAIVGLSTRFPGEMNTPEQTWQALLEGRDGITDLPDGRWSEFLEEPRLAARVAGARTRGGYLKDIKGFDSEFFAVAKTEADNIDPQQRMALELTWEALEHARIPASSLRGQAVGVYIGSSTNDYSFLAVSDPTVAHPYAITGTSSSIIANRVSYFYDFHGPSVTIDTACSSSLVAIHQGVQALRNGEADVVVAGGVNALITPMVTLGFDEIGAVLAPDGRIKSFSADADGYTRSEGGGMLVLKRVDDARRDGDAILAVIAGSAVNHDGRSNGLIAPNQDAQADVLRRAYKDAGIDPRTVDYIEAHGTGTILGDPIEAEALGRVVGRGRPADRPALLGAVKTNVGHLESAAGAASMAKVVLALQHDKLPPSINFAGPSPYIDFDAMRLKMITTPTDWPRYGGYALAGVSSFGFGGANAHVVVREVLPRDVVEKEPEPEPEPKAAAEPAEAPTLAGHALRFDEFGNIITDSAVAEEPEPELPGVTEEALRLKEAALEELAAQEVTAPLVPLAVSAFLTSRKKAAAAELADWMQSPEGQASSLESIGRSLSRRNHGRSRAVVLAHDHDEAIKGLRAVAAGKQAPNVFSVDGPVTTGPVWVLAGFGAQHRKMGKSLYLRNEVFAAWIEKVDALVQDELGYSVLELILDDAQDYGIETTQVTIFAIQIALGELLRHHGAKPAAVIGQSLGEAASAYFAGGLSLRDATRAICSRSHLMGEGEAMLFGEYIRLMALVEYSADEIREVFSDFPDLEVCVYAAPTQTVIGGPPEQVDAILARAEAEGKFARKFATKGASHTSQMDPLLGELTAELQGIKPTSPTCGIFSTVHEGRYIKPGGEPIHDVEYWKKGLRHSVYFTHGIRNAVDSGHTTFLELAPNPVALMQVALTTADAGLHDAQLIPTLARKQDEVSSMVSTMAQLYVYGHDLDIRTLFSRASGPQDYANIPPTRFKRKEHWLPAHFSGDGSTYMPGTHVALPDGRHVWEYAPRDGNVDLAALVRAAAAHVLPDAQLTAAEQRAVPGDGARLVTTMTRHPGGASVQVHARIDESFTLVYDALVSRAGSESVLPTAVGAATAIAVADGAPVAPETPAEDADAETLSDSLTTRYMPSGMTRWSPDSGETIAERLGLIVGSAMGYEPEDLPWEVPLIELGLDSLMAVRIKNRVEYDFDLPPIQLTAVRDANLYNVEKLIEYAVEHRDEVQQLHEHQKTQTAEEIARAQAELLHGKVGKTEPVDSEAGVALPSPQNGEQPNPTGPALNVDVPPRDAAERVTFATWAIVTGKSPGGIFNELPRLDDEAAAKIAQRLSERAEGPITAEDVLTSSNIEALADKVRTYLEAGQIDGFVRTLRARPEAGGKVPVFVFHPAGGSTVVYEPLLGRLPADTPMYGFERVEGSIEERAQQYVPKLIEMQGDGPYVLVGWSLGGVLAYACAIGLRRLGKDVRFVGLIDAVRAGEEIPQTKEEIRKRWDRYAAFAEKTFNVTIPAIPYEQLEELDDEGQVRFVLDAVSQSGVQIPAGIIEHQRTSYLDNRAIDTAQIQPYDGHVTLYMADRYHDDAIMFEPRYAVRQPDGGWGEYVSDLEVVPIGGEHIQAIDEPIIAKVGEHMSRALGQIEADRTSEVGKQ
SMILES,IC50 (Shiga toxin 2),IC50 [3],IC50 [4],further results
CN(C)S(=O)(=O)N1CCCC(c2cccc(Cc3ccccc3)n2)C1 (stereo not drawn),> 100 µM,–,–,pIC50 [1]: 4.718 and 4.613
Fc1ccc(OCc2noc(CN3CCc4cncnc4C3)n2)cc1,–,> 100 µM,> 100 µM,IC50 (Histidine--tRNA ligase [2]): 49.6 µM and 74.9 µM
Cc1noc(NC(=O)c2ccc(Br)s2)n1,> 100 µM,–,–,IC50 [5]: 42.5 µM; IC50 [6]: 32.8 µM
Cc1noc(NC(=O)c2ccc(OC(F)(F)F)cc2)n1,> 100 µM,–,–,IC50 [7]: 4.96 µM; IC50 (Proteasome subunit beta): 4.36 µM and 4.71 µM; pIC50 [8]: 5.158 and 4.98; pIC50 [1]: 5.092; IC50 [5]: 36.6 µM; IC50 [6]: 20 µM
O=C(NCc1ccccc1)N1CCC2(CC(=O)N(c3ccsc3)C2)C1 (stereo not drawn),–,> 100 µM,> 100 µM,–
CC1(C)OCC(CNC(=O)c2cnn(-c3ccc(Cl)cc3)c2N)O1 (stereo not drawn),> 100 µM,–,–,IC50 [9]: > 100 µM
CN1CCc2nc(C3CCN(C(=O)CCC4CCCC4)CC3)ncc2C1,–,45.5 µM and 43.7 µM,46.4 µM and 43.1 µM,IC50 (Proteasome subunit beta): > 100 µM; pIC50 [8]: < 4
COCCN1C[C@@H]2CN(c3ncccn3)C[C@@H]2C1=O,–,> 100 µM,> 100 µM,IC50 [10]: > 100 µM; IC50 [11]: > 29.5 µM
CN(CC1CC1)c1ccc2ccc(C(=O)NCCN3CCOCC3)cn12,–,94.4 µM and > 100 µM,> 100 µM,IC50 (Leishmania donovani): > 50.1 µM
CNC(=O)[C@H]1CCS(=O)(=O)[C@@H]2CN(Cc3ccc(OC)cc3)C[C@H]12,–,> 100 µM,> 100 µM,–
CN(CCCOc1ccccc1)C(=O)CN1CCc2cncnc2C1,–,> 100 µM,> 100 µM,IC50 (Histidine--tRNA ligase [2]): 44 µM and 39.2 µM
Cc1cc(C)n(C2CN(CC(=O)N(C)Cc3ccc(C)o3)C2)n1,–,79.3 µM and 74.7 µM,75.8 µM and 72.1 µM,–
CC(C)NC(=O)N1CCN(CC2CC2)CC2(CC(=O)N(C)C2)C1 (stereo not drawn),–,> 100 µM,> 100 µM,–
Cc1cc(-c2nn(C)c(Cl)c2CN2Cc3ccccc3C(O)C2)no1 (stereo not drawn),41.5 µM and > 100 µM,–,–,IC50 (Lysine--tRNA ligase): > 50.1 µM; IC50 (Histidine--tRNA ligase [2]): 16.7 µM and 20.3 µM
O=S(=O)(CCN1CCOC(Cn2cccn2)C1)C(F)(F)F (stereo not drawn),15 µM and 14 µM,–,–,IC50 [11]: > 29.5 µM; IC50 [5]: > 50.1 µM; IC50 [6]: 28.9 µM
NC[C@H]1CC[C@H](C(NC(=O)c2cccc(F)c2)c2ccccn2)CC1 (stereo partly drawn),–,> 100 µM and 87.7 µM,76 µM and > 100 µM,IC50 (Histidine--tRNA ligase [2]): 51 µM and 44.2 µM

SMILES,IC50 (Shiga toxin 2),IC50 [3],IC50 [4],further results
Fc1cccc(Oc2ccc(CNCC3CNc4ccnn4C3)cn2)c1 (stereo not drawn),–,> 100 µM,> 100 µM,IC50 (Histidine--tRNA ligase [2]): > 100 µM
CC(=O)N1CCN(c2ccc3ccc(C(=O)NC4CCCC4)cn23)CC1,–,41.1 µM and > 100 µM,> 100 µM,–
COc1ccc(C2SC(C)=Nc3c2c(=O)[nH]n3C2CCCCC2)cc1O (stereo not drawn),–,> 100 µM,> 100 µM,–
COc1ncc(C2(O)CCN(Cc3c(F)cccc3F)CC2)c(OC)n1,> 100 µM,–,–,–
Cc1cccnc1NC(=O)NCc1ccc(N2CCNC(=O)C2)cc1,–,52 µM and 31.6 µM,53.1 µM and 32.9 µM,IC50 (Histidine--tRNA ligase [2]): 19.7 µM and 15 µM
CN(Cc1ccsc1)C(=O)CS(=O)(=O)Cc1ccc(Cl)c(Cl)c1,> 100 µM,–,–,–
N#Cc1ccc(NCCNc2ccc(C(F)(F)F)cn2)nc1,> 100 µM,–,–,IC50 [7]: 22.7 µM; pIC50 [1]: 5.715
CNC(=O)C1(c2cnccn2)CCCN1C(=O)c1ccn(C)n1 (stereo not drawn),–,> 100 µM,> 100 µM,–
Cc1noc(NC(=O)c2ccc(Br)cc2)n1,> 100 µM,–,–,IC50 [7]: 9.76 µM; pIC50 [1]: 4.648 and 4.809
O=C(NC1CC1)c1ccc2ccc(N3CCN(CC4CC4)CC3)n2c1,–,41.1 µM and > 100 µM,> 100 µM,IC50 (Leishmania donovani): > 50.1 µM
O=C(C1=CCCC1)N1C[C@H](Oc2cccnc2)[C@H]2OCCC[C@H]21,–,> 100 µM,> 100 µM,–
NCc1cn(-c2ccccc2C(=O)NCc2cccc(Cl)c2)cn1,> 100 µM,–,–,–
CCOc1ccnc(N2CCN(C(=O)c3cccc(C#N)c3)CC2)n1,> 100 µM,–,–,–
CCOc1ccccc1C(=O)N1CCCC1c1ncc2c(n1)CCNC2 (stereo not drawn),> 100 µM,–,–,–
O=C(O)C(F)(F)F.c1cnc(N2CCC3(CC2)CN(CC2CC2)c2ccccc23)nc1,–,19.4 µM and 17.9 µM,16.3 µM and 16.2 µM,IC50 (Histidine--tRNA ligase [12]): 32.3 µM and 19.9 µM; IC50 (Histidine--tRNA ligase [2]): 9.51 µM and 9.98 µM; pIC50 (Plasmodium falciparum): 6.09; IC50 (Plasmodium falciparum; Plasmodium falciparum): 1.26 µM
